Tests used:
PI3Kγ (p120γ) = PI3Kγ (p120γ) (Homo sapiens, UniProt P48736); test: ADP-Glo Kinase Assay, inhibition of PI3Kγ
[1] = retrieved from database; ref TCMSP database [18]; cited from earlier work
PI3Kα (p110α/p85α) = PI3Kα (p110α/p85α) (Homo sapiens, UniProt P42336); test: ADP-Glo Kinase Assay, inhibition of PI3Kα
PI3Kβ (p110β/p85α) = PI3Kβ (p110β/p85α) (Homo sapiens, UniProt P42338); test: ADP-Glo Kinase Assay, inhibition of PI3Kβ
PI3Kδ (p110δ/p85α) = PI3Kδ (p110δ/p85α) (Homo sapiens, UniProt O00329); test: ADP-Glo Kinase Assay, inhibition of PI3Kδ
[2] = set-up: method as in TCMSP database [18]; settings: retrieved from database; ref TCMSP database [18]; in h (unit assumed); cited from earlier work

PI3Kγ (p120γ), sequence (P48736 whole entry): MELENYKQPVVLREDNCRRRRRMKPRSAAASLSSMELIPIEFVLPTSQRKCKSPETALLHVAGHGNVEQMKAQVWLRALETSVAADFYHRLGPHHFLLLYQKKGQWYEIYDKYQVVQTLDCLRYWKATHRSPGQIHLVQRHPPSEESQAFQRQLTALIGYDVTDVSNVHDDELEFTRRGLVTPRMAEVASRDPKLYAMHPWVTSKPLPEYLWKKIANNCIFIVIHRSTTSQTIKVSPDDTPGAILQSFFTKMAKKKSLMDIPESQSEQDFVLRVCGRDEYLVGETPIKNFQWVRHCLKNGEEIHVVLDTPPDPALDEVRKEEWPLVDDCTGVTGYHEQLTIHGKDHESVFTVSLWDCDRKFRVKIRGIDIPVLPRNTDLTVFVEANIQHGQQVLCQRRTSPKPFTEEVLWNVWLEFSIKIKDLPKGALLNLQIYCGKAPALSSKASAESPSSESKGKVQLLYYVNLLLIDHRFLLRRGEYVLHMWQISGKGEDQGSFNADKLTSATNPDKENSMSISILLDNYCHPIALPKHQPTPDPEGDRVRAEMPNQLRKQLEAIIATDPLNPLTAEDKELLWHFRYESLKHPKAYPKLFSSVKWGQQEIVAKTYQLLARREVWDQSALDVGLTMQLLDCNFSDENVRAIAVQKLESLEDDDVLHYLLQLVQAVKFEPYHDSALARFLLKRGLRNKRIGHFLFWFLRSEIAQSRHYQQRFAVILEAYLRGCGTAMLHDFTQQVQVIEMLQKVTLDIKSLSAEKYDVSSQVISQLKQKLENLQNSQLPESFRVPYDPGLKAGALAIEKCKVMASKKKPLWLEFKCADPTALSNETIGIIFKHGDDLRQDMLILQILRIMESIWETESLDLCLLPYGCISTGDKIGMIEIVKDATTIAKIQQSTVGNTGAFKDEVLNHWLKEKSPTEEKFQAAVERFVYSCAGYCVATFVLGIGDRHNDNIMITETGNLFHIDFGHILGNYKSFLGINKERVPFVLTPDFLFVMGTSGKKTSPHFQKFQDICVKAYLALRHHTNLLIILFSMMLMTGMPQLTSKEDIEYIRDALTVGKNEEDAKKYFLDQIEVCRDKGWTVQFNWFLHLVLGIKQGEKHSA
PI3Kβ (p110β/p85α), sequence (P42338 whole entry): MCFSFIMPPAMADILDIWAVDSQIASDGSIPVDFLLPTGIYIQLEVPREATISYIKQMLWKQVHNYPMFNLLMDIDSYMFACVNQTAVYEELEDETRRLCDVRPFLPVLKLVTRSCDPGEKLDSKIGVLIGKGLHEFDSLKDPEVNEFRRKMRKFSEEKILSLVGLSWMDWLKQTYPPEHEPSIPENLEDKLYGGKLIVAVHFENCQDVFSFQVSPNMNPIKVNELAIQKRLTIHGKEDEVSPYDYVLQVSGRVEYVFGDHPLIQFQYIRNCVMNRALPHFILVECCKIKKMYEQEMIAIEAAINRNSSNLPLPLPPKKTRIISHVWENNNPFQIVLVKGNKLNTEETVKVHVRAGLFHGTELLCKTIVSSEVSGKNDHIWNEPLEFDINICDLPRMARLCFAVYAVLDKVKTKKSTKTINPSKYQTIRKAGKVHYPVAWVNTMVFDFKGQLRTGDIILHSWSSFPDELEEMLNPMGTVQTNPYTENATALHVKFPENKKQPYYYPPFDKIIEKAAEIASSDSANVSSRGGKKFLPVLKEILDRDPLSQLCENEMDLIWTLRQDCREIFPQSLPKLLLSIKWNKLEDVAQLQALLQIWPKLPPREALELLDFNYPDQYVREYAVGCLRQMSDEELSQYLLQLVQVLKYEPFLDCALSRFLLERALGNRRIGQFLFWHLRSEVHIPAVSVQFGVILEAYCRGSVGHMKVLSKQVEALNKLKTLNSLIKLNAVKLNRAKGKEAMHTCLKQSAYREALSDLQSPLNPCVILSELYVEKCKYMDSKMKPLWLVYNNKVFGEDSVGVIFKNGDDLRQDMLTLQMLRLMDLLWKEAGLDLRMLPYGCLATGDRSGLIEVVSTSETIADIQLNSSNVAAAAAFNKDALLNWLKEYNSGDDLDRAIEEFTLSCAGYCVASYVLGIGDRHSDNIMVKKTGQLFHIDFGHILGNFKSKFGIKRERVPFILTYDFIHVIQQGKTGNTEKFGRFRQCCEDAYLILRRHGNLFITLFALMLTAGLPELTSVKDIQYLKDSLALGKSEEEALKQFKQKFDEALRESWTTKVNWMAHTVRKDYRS
PI3Kβ (p110β/p85α), sequence (P27986 whole entry partner): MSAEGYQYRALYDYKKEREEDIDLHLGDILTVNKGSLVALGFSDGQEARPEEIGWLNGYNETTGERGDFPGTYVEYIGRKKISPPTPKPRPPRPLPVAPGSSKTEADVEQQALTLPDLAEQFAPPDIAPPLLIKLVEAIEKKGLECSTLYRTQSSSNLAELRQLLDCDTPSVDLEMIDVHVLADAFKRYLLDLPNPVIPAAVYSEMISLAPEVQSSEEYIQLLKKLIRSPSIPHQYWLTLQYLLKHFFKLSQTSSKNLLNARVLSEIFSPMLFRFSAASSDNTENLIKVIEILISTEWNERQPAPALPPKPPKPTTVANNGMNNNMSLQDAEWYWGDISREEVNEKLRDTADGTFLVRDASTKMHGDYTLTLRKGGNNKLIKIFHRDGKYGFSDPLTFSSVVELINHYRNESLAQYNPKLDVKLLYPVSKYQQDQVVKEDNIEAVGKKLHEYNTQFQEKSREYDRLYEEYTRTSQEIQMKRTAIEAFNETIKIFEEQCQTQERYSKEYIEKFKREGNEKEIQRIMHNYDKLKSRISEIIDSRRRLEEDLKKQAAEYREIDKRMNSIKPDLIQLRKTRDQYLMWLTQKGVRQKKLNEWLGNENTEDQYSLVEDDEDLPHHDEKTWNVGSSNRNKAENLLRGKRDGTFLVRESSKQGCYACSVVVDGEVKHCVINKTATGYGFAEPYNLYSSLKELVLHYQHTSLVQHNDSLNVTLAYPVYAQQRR
PI3Kδ (p110δ/p85α), sequence (O00329 whole entry): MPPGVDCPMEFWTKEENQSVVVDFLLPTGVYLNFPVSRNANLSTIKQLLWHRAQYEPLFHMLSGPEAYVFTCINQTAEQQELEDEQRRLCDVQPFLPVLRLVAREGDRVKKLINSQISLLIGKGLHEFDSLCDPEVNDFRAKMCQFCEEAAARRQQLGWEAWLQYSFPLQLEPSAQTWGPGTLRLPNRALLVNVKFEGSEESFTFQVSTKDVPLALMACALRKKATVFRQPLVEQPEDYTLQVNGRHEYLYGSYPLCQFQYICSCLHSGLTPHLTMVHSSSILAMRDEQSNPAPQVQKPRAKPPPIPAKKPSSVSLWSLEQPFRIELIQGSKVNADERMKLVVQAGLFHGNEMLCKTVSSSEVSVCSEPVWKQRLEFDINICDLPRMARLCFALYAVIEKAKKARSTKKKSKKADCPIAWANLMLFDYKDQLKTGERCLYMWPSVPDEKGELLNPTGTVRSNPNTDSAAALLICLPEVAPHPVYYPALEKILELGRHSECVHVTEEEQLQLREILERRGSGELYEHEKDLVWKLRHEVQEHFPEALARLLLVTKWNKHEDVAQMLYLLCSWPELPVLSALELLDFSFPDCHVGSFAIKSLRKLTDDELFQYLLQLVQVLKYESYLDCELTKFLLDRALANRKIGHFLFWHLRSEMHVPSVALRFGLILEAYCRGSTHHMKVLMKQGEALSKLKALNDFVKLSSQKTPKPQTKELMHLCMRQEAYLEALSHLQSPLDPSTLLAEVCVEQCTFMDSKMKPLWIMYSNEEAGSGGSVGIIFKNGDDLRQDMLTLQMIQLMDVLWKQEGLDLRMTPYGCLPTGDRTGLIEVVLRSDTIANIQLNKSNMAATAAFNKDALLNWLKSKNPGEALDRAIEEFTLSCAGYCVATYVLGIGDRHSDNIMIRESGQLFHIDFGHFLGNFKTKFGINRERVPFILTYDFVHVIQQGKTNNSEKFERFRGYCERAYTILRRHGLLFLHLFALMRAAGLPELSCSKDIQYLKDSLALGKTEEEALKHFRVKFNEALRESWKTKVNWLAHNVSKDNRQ
PI3Kδ (p110δ/p85α), sequence (P27986 whole entry partner): as the sequence (P27986 whole entry partner) above
PI3Kα (p110α/p85α), sequence (P42336 whole entry): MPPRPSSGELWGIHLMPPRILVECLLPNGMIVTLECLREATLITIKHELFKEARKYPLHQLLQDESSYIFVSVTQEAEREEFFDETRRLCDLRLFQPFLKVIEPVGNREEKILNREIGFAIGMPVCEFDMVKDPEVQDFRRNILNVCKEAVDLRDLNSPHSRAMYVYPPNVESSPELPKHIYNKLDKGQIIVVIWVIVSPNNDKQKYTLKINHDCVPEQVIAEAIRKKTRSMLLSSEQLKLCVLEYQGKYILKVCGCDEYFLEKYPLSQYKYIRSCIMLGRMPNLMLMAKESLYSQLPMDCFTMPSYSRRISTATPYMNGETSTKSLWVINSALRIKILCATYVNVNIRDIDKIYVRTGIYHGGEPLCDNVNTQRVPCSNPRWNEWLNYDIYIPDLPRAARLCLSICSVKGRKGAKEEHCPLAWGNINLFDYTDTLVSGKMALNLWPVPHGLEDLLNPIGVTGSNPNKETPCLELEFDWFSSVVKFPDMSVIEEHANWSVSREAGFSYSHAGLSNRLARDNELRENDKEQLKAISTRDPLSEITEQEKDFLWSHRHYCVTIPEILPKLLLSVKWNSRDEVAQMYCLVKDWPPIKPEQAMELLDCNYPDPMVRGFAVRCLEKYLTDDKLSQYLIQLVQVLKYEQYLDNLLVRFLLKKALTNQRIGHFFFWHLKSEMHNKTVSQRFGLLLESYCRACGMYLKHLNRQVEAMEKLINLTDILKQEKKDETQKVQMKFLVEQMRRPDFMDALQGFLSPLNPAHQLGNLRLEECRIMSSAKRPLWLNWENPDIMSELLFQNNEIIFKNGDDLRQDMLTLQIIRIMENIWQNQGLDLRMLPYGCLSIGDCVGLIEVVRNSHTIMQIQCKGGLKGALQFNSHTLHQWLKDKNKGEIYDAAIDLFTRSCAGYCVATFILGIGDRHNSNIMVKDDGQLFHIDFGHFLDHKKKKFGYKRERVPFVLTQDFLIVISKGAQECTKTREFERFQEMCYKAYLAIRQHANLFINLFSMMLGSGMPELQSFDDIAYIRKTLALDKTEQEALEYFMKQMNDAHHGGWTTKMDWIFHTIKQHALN
PI3Kα (p110α/p85α), sequence (P27986 whole entry partner): as the sequence (P27986 whole entry partner) above

Compound | IC50 (PI3Kγ (p120γ)) | IC50 (PI3Kα (p110α/p85α)) | IC50 (PI3Kβ (p110β/p85α)) | IC50 (PI3Kδ (p110δ/p85α)) | OB (oral bioavailability) [1] | HL (drug half-life) [2]
CC(C)=CCC/C(C)=C/COc1ccc2ccc(=O)oc2c1 [AUR, auraptene] | 13.8 ± 1.31 µM | > 40 µM | > 40 µM | > 40 µM | 25.62% | 
O=c1cc(-c2ccc(O)c(O)c2)oc2cc(O)cc(O)c12 [LUT, luteolin] | 5.79 ± 0.1 µM | 2.49 ± 0.34 µM | 2.95 ± 0.19 µM | 1.55 ± 0.15 µM | 36.16% | 15.94
O=C1C[C@@H](c2ccc(O)cc2)Oc2cc(O)cc(O)c21 [NAR, naringenin] | > 40 µM | > 40 µM | > 40 µM | > 40 µM | 59.29% | 
COc1ccc(-c2cc(=O)c3c(OC)c(OC)c(OC)c(OC)c3o2)cc1OC [NOB, nobiletin] |  |  |  |  | 61.67% | 16.20

Second part, led by results:

IC50 (PI3Kγ (p120γ)) | IC50 (PI3Kα (p110α/p85α)) | IC50 (PI3Kβ (p110β/p85α)) | IC50 (PI3Kδ (p110δ/p85α)) | Compound | OB (oral bioavailability) [1] | HL (drug half-life) [2]
> 40 µM | > 40 µM | > 40 µM | > 40 µM | COc1ccc([C@@H]2CC(=O)c3c(O)cc(O)cc3O2)cc1O [HES, hesperetin] | 70.31% | 15.78
17.7 ± 1.16 µM | > 40 µM | > 40 µM | > 40 µM | COc1ccc(-c2cc(=O)c3c(OC)c(OC)c(OC)c(OC)c3o2)cc1 [TAN, tangeretin] | 21.38% | 
